Assays:
[1] = literature; read-out: KD for heme; cited from earlier work
[2] = Biolayer interferometry of heme binding; conditions: compared with NCR247 (L-enantiomer)
Excerpt: Biotinylation of heme: Hemin was biotinylated using the method exactly as described previouslyl^16. Biotin hydrazide, DCC was purchased from Sigma. COSMOSIL™ 5C18-AR-II Packed Column, 4.6 mm I.D.×150 mm from Nacalai USA (San Diego, CA) was used to separate the products. LC-MS was used to verify the correct molecular weight (969.4 Da) of biotinylated heme (in which only one of the two propionate groups of protoheme was conjugated with biotin hydrazide) as described above.
Biolayer interferometry: Biolayer interferometry was carried out using a ForteBio Octet RED96™ biolayer interferometer, following the manufacturer's instructions for a standard kinetic assay. Streptavidin-coated biosensor tips were incubated in 200 μl assay buffer (Water [pH 7.4]), each for 60s. Then biotinylated heme (or NCR247 in the case of Fe(III) PPIX dimethyl ester chloride) was loaded onto each biosensor tip at the defined concentration until the binding signal reached a value of >1.4. Biosensor tip loading was followed by incubation in assay buffer for 60s. Association between the ligand-heme and the analyte-various variants of NCR247 (Increasing concentrations in assay buffer) was observed over a time frame of ˜116 s, in assay buffer. To stop binding kinetics for dissociation, the biosensor tips were placed back into assay buffer not containing any analyte, for 120 s. Curves were fit with Global fit analysis and Data analysis and KD calculation was performed using Fortebio™ data analyses 8.2 software as described previously^89.

[3] = UV-Vis spectroscopy / colour change on heme addition; assay type: binding; conditions: heme added to peptide, ferric heme
Procedure: Heme preparation: Hemin solutions were always prepared in 0.1 M NaOH and used within 30 min of preparation. 1:1000 and 1:500 dilution of the stock solution was made and stock concentration was measured by pyridine hemochrome assay as described previously^85 by measuring the absorption at 557 nm using the extinction coefficient of pyridine hemochromogen (34.7 mM^−1 cm^−1).
UV-VIS spectroscopy: All absorption spectra were collected in a Tecan Spark™ 10 M microplate reader using black polystyrene 96-well plates. Absorbance from 300 nm to 700 nm was recorded with a 5 nm interval after an initial shaking at 100 rpm for 15 secs. Heme binding to synthesized peptide: Water (pH 7.4) was used in all reactions and was first added to the wells. Peptides solubilized in water were added and then heme solubilized in 0.1 M NaOH was added, mixed thoroughly and measurements were taken immediately. Peptide and heme volume were kept to a maximum of 5 ul in volume. For all the absorption curves (except Extended FIG. 3a) […] was used. The same was also repeated with 0.1 M Tris buffer (pH 7.4) as a base buffer instead of water.

Sinorhizobium meliloti [4] = test: S. meliloti cell death in 24 hours (plating); assay type: cell-based
Sinorhizobium meliloti [5] = test: S. meliloti growth curve; assay type: cell-based; conditions: increasing amounts of peptide; minimal medium
Procedure: Growth curve: All growth curve experiments were performed in a Tecan SPARK 10M microplate reader using polystyrene flat bottomed, non-treated, sterile 96 well plates. Overnight cultures grown in LBMC were washed and were subcultured (1:100 dilution) in minimal medium supplemented with respective iron concentrations. The plates were programed to continuously shake at 150 rpm and temperature maintained at 30° C. Optical density was measured at 600 nm every 60 minutes.

Aβ (1-42) peptide: human Aβ amyloid peptide derived from cleavage of the amyloid precursor protein
Kd [1]: 140 nM

RNGCIVDARCPYQKCSYPLYCRRR [M. sativa (alfalfa) NCR247 ortholog, NCR247 ortholog of M. sativa with a 4-amino acid change]
heme binding affinity, in words [2]: binds heme with the same affinity

RNGCIVDPRCPYQQCRRPLYCAAA [NCR247 (RRR to AAA mutant)]
heme binding (absorption peaks 366 nm, ~450 nm; colour change) [3]: binds heme
Cell death in 24 hours (Sinorhizobium meliloti [4]; 6 uM peptide): No cell death observed
reduction in number of S. meliloti cells (bactericidal effect) (Sinorhizobium meliloti [4]; incubated 24 hours, plated in non-selective medium): causes no reduction in number of S. meliloti cells
inhibition of growth of S. meliloti (bacteriostatic effect) (Sinorhizobium meliloti [5]): does not inhibit the growth of Sinorhizobium meliloti

haempexin: heme scavenger
Kd [1]: < 1000 nM

hemoglobin
Kd [1]: 10 nM

From patent US12065468B2, “Heme-binding small peptide” (priority 2021, dated 2024)
